Earlier results, collected in patent EP4635967A1, “OLIGONUCLEOTIDE COMPRISING LIPOPHILIC MONOMER AND USE THEREOF IN NON-LIVER DELIVERY” (Tuojie Biotech (Shanghai) Co., Ltd., priority 2022, dated 2024).

Settings: octanol-water partition coefficient, example values in the definition of lipophilic moiety

Row | SMILES | logKow
1 | NCCCCCCO [6-aminohexanol] | about 0.7
2 | CC(C)CCC[C@@H](C)[C@H]1CC[C@H]2[C@@H]3CC=C4C[C@@H](OC(=O)NCCCCCCO)CC[C@]4(C)[C@H]3CC[C@]12C [cholesteryl N-(hexan-6-ol)carbamate] | 10.7
